SMILES strings stand for the structures.

Source text: This formula contains 8% Glycolic acid or 0.1053 equivalents, neutralized with 2.4% ammonia hydroxide which is 0.0395 equivalents, resulting in a final formula pH of 3.8. The DMAE formula contains 2.58% malonic acid or 0.0496 equivalents, neutralized with 3.20% DMAE which is 0.0358 equivalents, resulting in a final formula pH of 5.5. […] The clinical involved (49) panelists over a six week period. Panelists were required to apply each product to one half of their face. After application, the panelists were required to answer a series of questions regarding relative effectiveness of the products.
The effect of pH was evaluated with another set of panelists numbering (58) persons utilizing a formulation at pH 6.5. In this set, 2.05% or 0.0394 equivalents of Malonic acid was neutralized with 3.17% or 0.0356 equivalents of DMAE resulting in a formula with a pH of 6.5. In this formula the malonic acid was 90.35% neutralized with the DMAE. In both DMAE formulas the lower pKa malonic acid group was totally neutralized, depending on the amount of malonic acid present in each formula. The second higher pKa acid group was partially neutralized with the remaining DMAE equivalents to bring the pH up to the desired value.

For the molecule `CN(C)CCO.O=C(O)CC(=O)O` [DMAE malonate, dimethylaminoethanol (DMAE) malonate], the “improving the general condition of skin” value (compared with ammonium glycolate) is “as effective as ammonium glycolate”. Further, under “compared with the ammonium glycolate composition”, the irritation entry is given as “considerably less irritating than the ammonium glycolate composition”.

The record behind these values is US20030224023A1, “Cosmetic compositions with hydroxy amine salts of malonic acid” (Unilever Home & Personal Care USA, Division of Conopco, Inc., priority 2002, published 2003).
